Experimental data: patent publication US20230413820A1, “HERBICIDAL N-HETEROARYL PYRAZOLE COMPOUNDS” (SYNGENTA CROP PROTECTION AG, priority 2020, published 2023)

What was measured:
Assay type in all cases: in vivo
[1] = test system: Amaranthus retoflexus (AMARE); experiment: Pre-emergence herbicide glasshouse test; conditions: 250 g/ha, sprayed after one day cultivation, evaluated after 13 days
Description: (§1) Seeds of a variety of test species (Abutilon theophrasti (ABUTH), Amaranthus retoflexus (AMARE), Echinochloa crus-galli (ECHCG), Ipomoea hederacea (IPOHE), Setaria faberi (SETFA)) are sown in standard soil in pots. After cultivation for one day (pre-emergence) or after 8 days cultivation (post-emergence) under controlled conditions in a glasshouse (at 24/16° C., day/night; 14 hours light; 65% humidity), the plants are sprayed with an aqueous spray solution derived from the formulation of the technical active ingredient in acetone/water (50:50) solution containing 0.5% Tween 20 (polyoxyethelyene sorbitan monolaurate, CAS RN 9005-64-5). Compounds are applied at 250 g/ha unless otherwise stated. The test plants are then grown in a glasshouse under controlled conditions in a glasshouse (at 24/16° C., day/night; 14 hours light; 65% humidity) and watered twice daily. After 13 days for pre- and post-emergence, the test is evaluated for the percentage damage caused to the plant. The biological activities are shown in the following table on a five-point scale (5=81-100%; 4=61-80%; 3=41-60%; 2=21-40%; 1=0-20%).

[2] = test system: Ipomoea hederacea (IPOHE); experiment: Pre-emergence herbicide glasshouse test; conditions: 250 g/ha, sprayed after one day cultivation, evaluated after 13 days
Description: as §1

[3] = test system: Abutilon theophrasti (ABUTH); experiment: Pre-emergence herbicide glasshouse test; conditions: 250 g/ha, sprayed after one day cultivation, evaluated after 13 days
Description: as §1

[4] = test system: Echinochloa crus-galli (ECHCG); experiment: Pre-emergence herbicide glasshouse test; conditions: 250 g/ha, sprayed after one day cultivation, evaluated after 13 days
Description: as §1

Setaria faberi (SETFA) [5] = experiment: Pre-emergence herbicide glasshouse test; conditions: 250 g/ha, sprayed after one day cultivation, evaluated after 13 days
Description: as §1

[6] = test system: Amaranthus retoflexus (AMARE); experiment: Post-emergence herbicide glasshouse test; conditions: 250 g/ha, sprayed after 8 days cultivation, evaluated after 13 days
Description: as §1

[7] = test system: Ipomoea hederacea (IPOHE); experiment: Post-emergence herbicide glasshouse test; conditions: 250 g/ha, sprayed after 8 days cultivation, evaluated after 13 days
Description: as §1

[8] = test system: Abutilon theophrasti (ABUTH); experiment: Post-emergence herbicide glasshouse test; conditions: 250 g/ha, sprayed after 8 days cultivation, evaluated after 13 days
Description: as §1

[9] = test system: Echinochloa crus-galli (ECHCG); experiment: Post-emergence herbicide glasshouse test; conditions: 250 g/ha, sprayed after 8 days cultivation, evaluated after 13 days
Description: as §1

Setaria faberi (SETFA) [10] = experiment: Post-emergence herbicide glasshouse test; conditions: 250 g/ha, sprayed after 8 days cultivation, evaluated after 13 days
Description: as §1

Row | SMILES | percentage damage caused to the plant, AMARE [1] | percentage damage caused to the plant, IPOHE [2] | percentage damage caused to the plant, ABUTH [3] | percentage damage caused to the plant, ECHCG [4] | percentage damage caused to the plant, SETFA (Setaria faberi (SETFA) [5]) | percentage damage caused to the plant, AMARE [6] | percentage damage caused to the plant, IPOHE [7] | percentage damage caused to the plant, ABUTH [8] | percentage damage caused to the plant, ECHCG [9] | percentage damage caused to the plant, SETFA (Setaria faberi (SETFA) [10])
1 | FC(F)(F)c1cc(Oc2cccc(Cl)n2)n(-c2ncc(Cl)cn2)n1 [Compound 1.001] | 5 (5=81-100%) | 1 (1=0-20%) | 1 (1=0-20%) | 5 (5=81-100%) | 5 (5=81-100%) | 5 (5=81-100%) | 2 (2=21-40%) | 2 (2=21-40%) | 4 (4=61-80%) | 3 (3=41-60%)
2 | FC(F)(F)c1cccc(Oc2cc(C(F)(F)F)nn2-c2ncc(Cl)cn2)n1 [Compound 1.004] | 5 (5=81-100%) | 2 (2=21-40%) | 4 (4=61-80%) | 5 (5=81-100%) | 5 (5=81-100%) | 5 (5=81-100%) | 3 (3=41-60%) | 4 (4=61-80%) | 4 (4=61-80%) | 4 (4=61-80%)
3 | FC(F)Oc1cnc(-n2nc(C(F)(F)F)cc2Oc2cccc(OC(F)F)n2)nc1 [Compound 1.028] | 5 (5=81-100%) | 1 (1=0-20%) |  | 5 (5=81-100%) | 5 (5=81-100%) | 5 (5=81-100%) | 3 (3=41-60%) |  | 5 (5=81-100%) | 5 (5=81-100%)
4 | COc1ccnc(-n2nc(C(F)(F)F)cc2Oc2cccc(OC(F)F)n2)n1 [Compound 1.026] | 4 (4=61-80%) | 1 (1=0-20%) | 2 (2=21-40%) | 1 (1=0-20%) | 1 (1=0-20%) | 3 (3=41-60%) | 1 (1=0-20%) | 1 (1=0-20%) | 1 (1=0-20%) | 1 (1=0-20%)
5 | N#Cc1ccc(-n2nc(C(F)(F)F)cc2Oc2cccc(OC(F)F)n2)nc1 [Compound 1.029] | 4 (4=61-80%) | 1 (1=0-20%) |  | 2 (2=21-40%) | 2 (2=21-40%) | 5 (5=81-100%) | 3 (3=41-60%) |  | 1 (1=0-20%) | 1 (1=0-20%)
6 | Fc1cnc(-n2nc(C(F)(F)F)cc2Oc2cccc(OC(F)F)n2)nc1 [Compound 1.005, 2-[5-[[6-(difluoromethoxy)-2-pyridyl]oxy]-3-(trifluoromethyl)pyrazol-1-yl]-5-fluoro-pyrimidine] | 5 (5=81-100%) | 5 (5=81-100%) | 4 (4=61-80%) | 5 (5=81-100%) | 5 (5=81-100%) | 5 (5=81-100%) | 4 (4=61-80%) | 5 (5=81-100%) | 4 (4=61-80%) | 4 (4=61-80%)
7 | FC(F)(F)c1cc(Oc2ccnc(Cl)n2)n(-c2ncc(Cl)cn2)n1 [Compound 1.012] | 3 (3=41-60%) | 1 (1=0-20%) |  | 1 (1=0-20%) | 2 (2=21-40%) | 2 (2=21-40%) | 1 (1=0-20%) |  | 1 (1=0-20%) | 1 (1=0-20%)
8 | Fc1cc(Cl)cnc1-n1nc(C(F)(F)F)cc1Oc1cccc(OC(F)F)n1 [Compound 1.031] |  | 1 (1=0-20%) |  | 1 (1=0-20%) | 2 (2=21-40%) | 4 (4=61-80%) | 1 (1=0-20%) |  | 1 (1=0-20%) | 2 (2=21-40%)
9 | FC(F)(F)c1cc(Oc2ccnc(C(F)(F)F)n2)n(-c2ncc(Cl)cn2)n1 [Compound 1.011] | 5 (5=81-100%) | 1 (1=0-20%) |  | 4 (4=61-80%) | 5 (5=81-100%) | 4 (4=61-80%) | 1 (1=0-20%) |  | 4 (4=61-80%) | 4 (4=61-80%)
10 | FC(F)Oc1cccc(Oc2cc(C(F)(F)F)nn2-c2ncc(Cl)cn2)n1 [Compound 1.002] | 5 (5=81-100%) | 3 (3=41-60%) | 4 (4=61-80%) | 5 (5=81-100%) | 5 (5=81-100%) | 5 (5=81-100%) | 4 (4=61-80%) | 5 (5=81-100%) | 5 (5=81-100%) | 5 (5=81-100%)
11 | FC(F)Oc1cccc(Oc2cc(C(F)(F)F)nn2-c2ncccn2)n1 [Compound 1.027] | 3 (3=41-60%) | 2 (2=21-40%) |  | 1 (1=0-20%) | 1 (1=0-20%) | 4 (4=61-80%) | 2 (2=21-40%) |  | 1 (1=0-20%) | 1 (1=0-20%)
12 | FC(F)c1cccc(Oc2cc(C(F)(F)F)nn2-c2ncc(Cl)cn2)n1 [Compound 1.003] | 5 (5=81-100%) | 2 (2=21-40%) | 1 (1=0-20%) | 4 (4=61-80%) | 2 (2=21-40%) | 5 (5=81-100%) | 4 (4=61-80%) | 3 (3=41-60%) | 4 (4=61-80%) | 4 (4=61-80%)
13 | Fc1cnc(-n2nc(C(F)(F)F)cc2Oc2cccc(C(F)(F)F)n2)nc1 [Compound 1.024] | 5 (5=81-100%) | 1 (1=0-20%) |  | 1 (1=0-20%) | 1 (1=0-20%) | 2 (2=21-40%) | 1 (1=0-20%) |  | 1 (1=0-20%) | 1 (1=0-20%)
14 | N#Cc1cc(Cl)cnc1-n1nc(C(F)(F)F)cc1Oc1cccc(OC(F)F)n1 [Compound 1.030] | 2 (2=21-40%) | 1 (1=0-20%) |  | 1 (1=0-20%) | 1 (1=0-20%) | 3 (3=41-60%) | 1 (1=0-20%) |  | 1 (1=0-20%) | 2 (2=21-40%)
15 | N#Cc1cccc(Oc2cc(C(F)(F)F)nn2-c2ncc(Cl)cn2)n1 [Compound 1.023] | 5 (5=81-100%) | 4 (4=61-80%) |  | 4 (4=61-80%) | 5 (5=81-100%) | 4 (4=61-80%) | 3 (3=41-60%) |  | 4 (4=61-80%) | 4 (4=61-80%)
16 | Cc1nccc(Oc2cc(C(F)(F)F)nn2-c2ncc(Cl)cn2)n1 [Compound 1.015] | 3 (3=41-60%) | 1 (1=0-20%) |  | 1 (1=0-20%) | 2 (2=21-40%) | 2 (2=21-40%) | 1 (1=0-20%) |  | 1 (1=0-20%) | 1 (1=0-20%)
